Assay results published in ChEMBL document CHEMBL5512683, “Discovery of Novel ERα and Aromatase Dual-Targeting PROTAC Degraders to Overcome Endocrine-Resistant Breast Cancer” (J Med Chem, 2024).
Active and inactive are the calls of the source. No cut-off for these calls is given here.

Columns and labels:
[1] = Anti-proliferative activity against human MCF-10A cells incubated for 96 hrs by CCK8 assay; format: toxicity, cell-based
Aromatase = biological target: T1, Aromatase (Homo sapiens, UniProt P11511); assay: Inhibition of recombinant human aromatase using ARO substrate/NADP+ mixture by fluorescence assay
T1 sequence (P11511 whole entry): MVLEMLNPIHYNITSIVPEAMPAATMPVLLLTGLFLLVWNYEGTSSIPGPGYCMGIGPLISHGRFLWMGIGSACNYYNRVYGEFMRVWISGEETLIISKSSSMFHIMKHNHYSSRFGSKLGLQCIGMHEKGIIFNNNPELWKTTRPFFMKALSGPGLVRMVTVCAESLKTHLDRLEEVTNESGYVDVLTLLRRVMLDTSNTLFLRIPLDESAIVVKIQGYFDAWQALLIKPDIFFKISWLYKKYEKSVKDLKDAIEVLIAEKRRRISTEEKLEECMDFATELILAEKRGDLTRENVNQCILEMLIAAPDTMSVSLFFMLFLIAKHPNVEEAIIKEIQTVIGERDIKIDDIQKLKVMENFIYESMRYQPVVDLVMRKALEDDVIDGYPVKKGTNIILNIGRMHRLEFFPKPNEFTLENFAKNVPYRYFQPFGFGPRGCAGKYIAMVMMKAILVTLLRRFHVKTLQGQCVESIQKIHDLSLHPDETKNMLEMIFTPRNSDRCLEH

[2] = biological target: von Hippel-Lindau disease tumor suppressor/Aromatase (Homo sapiens, UniProt P11511+P40337); assay: PROTAC activity at human ARO/VHL E3 ligase in human MCF-7 cells assessed as degradation of ARO at 1 uM incubated for 24 hrs by Western blot analysis; format: cell-based; conditions: mcf7, 24 h
von Hippel-Lindau disease tumor suppressor/Aromatase, sequence (P40337 whole entry, one chain of several): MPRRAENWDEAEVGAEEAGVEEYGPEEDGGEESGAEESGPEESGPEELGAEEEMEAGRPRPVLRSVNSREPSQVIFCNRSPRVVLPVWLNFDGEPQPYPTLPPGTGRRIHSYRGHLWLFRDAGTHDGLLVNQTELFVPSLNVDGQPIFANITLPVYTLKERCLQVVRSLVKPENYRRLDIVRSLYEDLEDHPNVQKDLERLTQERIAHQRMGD

MCF7 [3] = assay: Antiproliferative activity against human resistant MCF7 cells harboring EGFR assessed as cell viability incubated for 96 hrs by CCK8 assay; conditions: MCF7, 96 h
MCF7 [4] = assay: Antiproliferative activity against human resistant MCF7 cells harboring ERalpha D538G mutant at LBD assessed as cell viability incubated for 96 hrs by CCK8 assay; conditions: MCF7, 96 h
MCF7 [5] = assay: Anti-proliferative activity against ERalpha positive human MCF7 cells incubated for 96 hrs by CCK8 assay; conditions: MCF7, 96 h
MCF7 [6] = assay: Antiproliferative activity against human resistant MCF7 cells harboring ERalpha Y537S mutant at LBD assessed as cell viability incubated for 96 hrs by CCK8 assay; conditions: MCF7, 96 h
Estrogen receptor beta = Estrogen receptor beta (Homo sapiens, UniProt Q92731); assay: Binding affinity to human ERbeta assessed as inhibition constant incubated under dark condition for 2 hrs by competitive fluorometric binding assay
Estrogen receptor beta, sequence (Q92731 whole entry): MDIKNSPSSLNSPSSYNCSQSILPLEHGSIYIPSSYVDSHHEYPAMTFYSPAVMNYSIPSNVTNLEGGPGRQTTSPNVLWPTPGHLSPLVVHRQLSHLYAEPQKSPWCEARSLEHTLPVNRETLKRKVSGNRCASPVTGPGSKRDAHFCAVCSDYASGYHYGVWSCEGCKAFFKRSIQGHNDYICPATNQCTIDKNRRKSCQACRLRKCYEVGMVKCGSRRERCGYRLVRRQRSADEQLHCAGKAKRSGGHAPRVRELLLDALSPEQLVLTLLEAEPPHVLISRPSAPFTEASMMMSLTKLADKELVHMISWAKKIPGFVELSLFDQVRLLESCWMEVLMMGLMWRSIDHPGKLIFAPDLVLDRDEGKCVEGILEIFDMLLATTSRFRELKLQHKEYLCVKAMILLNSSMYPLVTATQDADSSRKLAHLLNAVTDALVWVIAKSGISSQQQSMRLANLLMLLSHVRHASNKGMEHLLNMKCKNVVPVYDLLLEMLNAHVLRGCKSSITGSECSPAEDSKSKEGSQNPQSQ

MCF7 [7] = assay: In vivo PROTAC activity in aromatase/VHL E3 ligase in human MCF7 cell xenografted in Balb/c mouse model assessed as reduction in ARO level in tumor at 5 mg/kg, ip every other day measured upto 20 days; format: functional, organism-based; conditions: time <= 20.0 day
MCF7 [8] = assay: In vivo PROTAC activity in ERalpha/VHL E3 ligase in human MCF7 cell xenografted in Balb/c mouse model assessed as reduction in ERalpha level in tumor at 5 mg/kg, ip every other day measured upto 20 days; format: functional, organism-based; conditions: time <= 20.0 day

| Compound | IC50 at 96 h [1] | IC50 (Aromatase) | Activity [2] | IC50 (MCF7 [3]) | IC50 (MCF7 [4]) | IC50 (MCF7 [5]) | IC50 (MCF7 [6]) | Ki (Estrogen receptor beta) | Activity (MCF7 [7]) | Activity (MCF7 [8]) |
| --- | --- | --- | --- | --- | --- | --- | --- | --- | --- | --- |
| CC/C(=C(\c1ccc(O)cc1)c1ccc(OCCN(C)C)cc1)c1ccccc1 [AFIMOXIFENE] | 21 µM | > 100 µM |  |  |  |  |  |  |  |  |
| Cc1ncsc1-c1ccc([C@H](C)NC(=O)[C@@H]2C[C@@H](O)CN2C(=O)[C@@H](NC(=O)CCCCCCCCCOc2ccc(N(CC(F)(F)F)S(=O)(=O)C3CC4OC3C(c3ccc(-n5ccnc5)cc3)=C4c3ccc(O)cc3)cc2)C(C)(C)C)cc1 (stereo partly specified) | > 100 µM | > 100 µM | Active | > 100 µM | > 100 µM | 0.33 µM | 100 µM | > 79 µM |  |  |
| Cc1ncsc1-c1ccc([C@H](C)NC(=O)[C@@H]2C[C@@H](O)CN2C(=O)[C@@H](NC(=O)CCCCOc2ccc(N(CC(F)(F)F)S(=O)(=O)C3CC4OC3C(c3ccc(-n5ccnc5)cc3)=C4c3ccc(O)cc3)cc2)C(C)(C)C)cc1 (stereo partly specified) | > 100 µM | 0.32 µM | Active | 2.2 µM | 100 µM | 0.6 µM | > 100 µM |  |  |  |
| Cc1ncsc1-c1ccc([C@H](C)NC(=O)[C@@H]2C[C@@H](O)CN2C(=O)[C@@H](NC(=O)COCCOc2ccc(N(CC(F)(F)F)S(=O)(=O)C3CC4OC3C(c3ccc(-n5ccnc5)cc3)=C4c3ccc(O)cc3)cc2)C(C)(C)C)cc1 (stereo partly specified) | > 100 µM | 3.9 µM | Active | > 100 µM | > 100 µM | 1.5 µM | 15 µM | > 79 µM |  |  |
| C[C@]12CC[C@@H]3c4ccc(O)cc4C[C@@H](CCCCCCCCC[S+]([O-])CCCC(F)(F)C(F)(F)F)[C@H]3[C@@H]1CC[C@@H]2O (stereo partly specified) [FULVESTRANT] | > 100 µM | > 100 µM |  |  |  |  |  |  | Active | Active |
| Cc1ncsc1-c1ccc([C@H](C)NC(=O)[C@@H]2C[C@@H](O)CN2C(=O)[C@@H](NC(=O)CCCCCCCOc2ccc(N(CC(F)(F)F)S(=O)(=O)C3CC4OC3C(c3ccc(-n5ccnc5)cc3)=C4c3ccc(O)cc3)cc2)C(C)(C)C)cc1 (stereo partly specified) | > 100 µM | 10 µM | Active | 4.7 µM | 29 µM | 1.8 µM | 30 µM |  |  |  |
| O=C(COc1cccc2c1C(=O)N(C1CCC(=O)NC1=O)C2=O)NCCCCCOc1ccc(N(CC(F)(F)F)S(=O)(=O)C2CC3OC2C(c2ccc(-n4ccnc4)cc2)=C3c2ccc(O)cc2)cc1 (stereo unspecified) | > 100 µM | > 100 µM |  | 23 µM | 3.6 µM | 9.3 µM | 23 µM | > 79 µM |  |  |
| N#Cc1ccc(C(c2ccc(C#N)cc2)n2cncn2)cc1 [LETROZOLE] | > 100 µM |  |  |  |  |  |  |  | Active | Active |
| Cc1ncsc1-c1ccc([C@@H](C)NC(=O)[C@H]2C[C@H](O)CN2C(=O)[C@H](NC(=O)COCCOCCOCCOc2ccc(N(CC(F)(F)F)S(=O)(=O)C3CC4OC3C(c3ccc(-n5ccnc5)cc3)=C4c3ccc(O)cc3)cc2)C(C)(C)C)cc1 (stereo partly specified) | > 100 µM | 2.6 µM | Active | 7.3 µM | > 100 µM | 0.51 µM | 100 µM |  |  |  |
| Cc1ncsc1-c1ccc([C@H](C)NC(=O)[C@@H]2C[C@@H](O)CN2C(=O)[C@@H](NC(=O)CCCCCOc2ccc(N(CC(F)(F)F)S(=O)(=O)C3CC4OC3C(c3ccc(-n5cncn5)cc3)=C4c3ccc(O)cc3)cc2)C(C)(C)C)cc1 (stereo partly specified) | > 100 µM | > 100 µM |  | 0.63 µM | 0.69 µM | 0.56 µM | 4 µM |  |  |  |
| O=C(COc1cccc2c1C(=O)N(C1CCC(=O)NC1=O)C2=O)NCCCOc1ccc(N(CC(F)(F)F)S(=O)(=O)C2CC3OC2C(c2ccc(-n4ccnc4)cc2)=C3c2ccc(O)cc2)cc1 (stereo unspecified) | > 100 µM | > 100 µM |  | 25 µM | 6.4 µM | 8.7 µM | 9.5 µM | > 79 µM |  |  |
| Cc1ncsc1-c1ccc([C@H](C)NC(=O)[C@@H]2C[C@@H](O)CN2C(=O)[C@@H](NC(=O)COCCOCCOCCOCCOc2ccc(N(CC(F)(F)F)S(=O)(=O)C3CC4OC3C(c3ccc(-n5ccnc5)cc3)=C4c3ccc(O)cc3)cc2)C(C)(C)C)cc1 (stereo partly specified) | > 100 µM | 0.64 µM | Active | 17 µM | 26 µM | 2.4 µM | 100 µM |  |  |  |
| Cc1ncsc1-c1ccc([C@H](C)NC(=O)[C@@H]2C[C@@H](O)CN2C(=O)[C@@H](NC(=O)CCCOc2ccc(N(CC(F)(F)F)S(=O)(=O)C3CC4OC3C(c3ccc(-n5ccnc5)cc3)=C4c3ccc(O)cc3)cc2)C(C)(C)C)cc1 (stereo partly specified) | > 100 µM | 1.2 µM | Active | > 100 µM | > 100 µM | 0.13 µM | > 100 µM |  |  |  |
| COc1ccc(N(CC(F)(F)F)S(=O)(=O)C2CC3OC2C(c2ccc(O)cc2)=C3c2ccc(O)cc2)cc1 (stereo unspecified) |  | > 100 µM |  |  |  |  |  |  |  |  |
| Cc1ncsc1-c1ccc([C@H](C)NC(=O)[C@@H]2C[C@@H](O)CN2C(=O)[C@@H](NC(=O)CCCCCCOc2ccc(N(CC(F)(F)F)S(=O)(=O)C3CC4OC3C(c3ccc(-n5ccnc5)cc3)=C4c3ccc(O)cc3)cc2)C(C)(C)C)cc1 (stereo partly specified) | > 100 µM | 5.2 µM | Active | 5.5 µM | 1.7 µM | 2.3 µM | > 100 µM |  |  |  |
| Cc1ncsc1-c1ccc([C@H](C)NC(=O)[C@@H]2C[C@@H](O)CN2C(=O)[C@@H](NC(=O)CCCCCCCCOc2ccc(N(CC(F)(F)F)S(=O)(=O)C3CC4OC3C(c3ccc(-n5ccnc5)cc3)=C4c3ccc(O)cc3)cc2)C(C)(C)C)cc1 (stereo partly specified) | > 100 µM | > 100 µM | Active | 1.4 µM | 1.8 µM | 1.3 µM | 100 µM | > 79 µM |  |  |
| Cc1ncsc1-c1ccc([C@H](C)NC(=O)[C@@H]2C[C@@H](O)CN2C(=O)[C@@H](NC(=O)CCCCCCCCCCCOc2ccc(N(CC(F)(F)F)S(=O)(=O)C3CC4OC3C(c3ccc(-n5ccnc5)cc3)=C4c3ccc(O)cc3)cc2)C(C)(C)C)cc1 (stereo partly specified) | > 100 µM | > 100 µM | Active | > 100 µM | 0.23 µM | 2 µM | 3.5 µM | > 79 µM |  |  |
| Cc1ncsc1-c1ccc([C@H](C)NC(=O)[C@@H]2C[C@@H](O)CN2C(=O)[C@@H](NC(=O)CCCCCCCCCCOc2ccc(N(CC(F)(F)F)S(=O)(=O)C3CC4OC3C(c3ccc(-n5ccnc5)cc3)=C4c3ccc(O)cc3)cc2)C(C)(C)C)cc1 (stereo partly specified) | > 100 µM | > 100 µM | Active | > 100 µM | > 100 µM | 4.9 µM | 22 µM |  |  |  |
